In the CheMixHub viscosity set:
± gives the uncertainty stated by the source.

Assay: xn = mol fraction of the nth substance listed

With OCC(O)C(O)CO (stereo unspecified) + O the viscosity (293.15 K, 101 kPa, x1 = 0.005) was 1.176 ± 0.011 mPa·s, the viscosity (293.15 K, 101 kPa, x1 = 0.015) was 1.42 ± 0.013 mPa·s and the viscosity (293.15 K, 101 kPa, x1 = 0.02) was 1.53 ± 0.014 mPa·s. The viscosity (298.15 K, 101 kPa, x1 = 0.005) was 1.05 ± 0.01 mPa·s, the viscosity (298.15 K, 101 kPa, x1 = 0.01) was 1.152 ± 0.011 mPa·s and the viscosity (298.15 K, 101 kPa, x1 = 0.015) was 1.25 ± 0.012 mPa·s. It also gave a viscosity (298.15 K, 101 kPa, x1 = 0.02) of 1.327 ± 0.012 mPa·s, a viscosity (303.15 K, 101 kPa, x1 = 0.005) of 0.915 ± 0.009 mPa·s and a viscosity (303.15 K, 101 kPa, x1 = 0.01) of 1.021 ± 0.01 mPa·s. For the same molecule, the viscosity (303.15 K, 101 kPa, x1 = 0.015) was 1.109 ± 0.01 mPa·s, the viscosity (303.15 K, 101 kPa, x1 = 0.02) was 1.191 ± 0.011 mPa·s and the viscosity (308.15 K, 101 kPa, x1 = 0.005) was 0.79 ± 0.008 mPa·s. The viscosity (308.15 K, 101 kPa, x1 = 0.01) was 0.912 ± 0.009 mPa·s, the viscosity (308.15 K, 101 kPa, x1 = 0.015) was 0.968 ± 0.009 mPa·s and the viscosity (308.15 K, 101 kPa, x1 = 0.02) was 1.053 ± 0.01 mPa·s. For the same molecule, the viscosity (313.15 K, 101 kPa, x1 = 0.01) was 0.821 ± 0.008 mPa·s, the viscosity (313.15 K, 101 kPa, x1 = 0.015) was 0.891 ± 0.009 mPa·s and the viscosity (313.15 K, 101 kPa, x1 = 0.02) was 0.965 ± 0.009 mPa·s. It also gave a viscosity (318.15 K, 101 kPa, x1 = 0.005) of 0.649 ± 0.006 mPa·s, a viscosity (318.15 K, 101 kPa, x1 = 0.01) of 0.744 ± 0.007 mPa·s and a viscosity (318.15 K, 101 kPa, x1 = 0.015) of 0.808 ± 0.008 mPa·s. For the same molecule, the viscosity (318.15 K, 101 kPa, x1 = 0.02) was 0.86 ± 0.008 mPa·s, the viscosity (323.15 K, 101 kPa, x1 = 0.005) was 0.62 ± 0.006 mPa·s and the viscosity (323.15 K, 101 kPa, x1 = 0.01) was 0.679 ± 0.007 mPa·s. It also gave a viscosity (323.15 K, 101 kPa, x1 = 0.015) of 0.736 ± 0.007 mPa·s and a viscosity (323.15 K, 101 kPa, x1 = 0.02) of 0.813 ± 0.008 mPa·s.
For CC(CC(C)(C)C)CC(C)(C)CC(C)(C)C (stereo unspecified) + CCCCCCCCCCCCC, the viscosity (293.15 K, 100 kPa, x2 = 0.125) was 3.28 ± 0.15 mPa·s, the viscosity (293.15 K, 100 kPa, x2 = 0.25) was 2.98 ± 0.14 mPa·s and the viscosity (293.15 K, 100 kPa, x2 = 0.375) was 2.69 ± 0.12 mPa·s. It also gave a viscosity (293.15 K, 100 kPa, x2 = 0.5) of 2.49 ± 0.11 mPa·s, a viscosity (293.15 K, 100 kPa, x2 = 0.625) of 2.29 ± 0.1 mPa·s and a viscosity (293.15 K, 100 kPa, x2 = 0.75) of 2.14 ± 0.1 mPa·s. It also gave a viscosity (293.15 K, 100 kPa, x2 = 0.875) of 1.98 ± 0.09 mPa·s, a viscosity (303.15 K, 100 kPa, x2 = 0.125) of 2.65 ± 0.12 mPa·s and a viscosity (303.15 K, 100 kPa, x2 = 0.25) of 2.39 ± 0.11 mPa·s. The viscosity (303.15 K, 100 kPa, x2 = 0.375) was 2.18 ± 0.1 mPa·s, the viscosity (303.15 K, 100 kPa, x2 = 0.5) was 2.07 ± 0.09 mPa·s and the viscosity (303.15 K, 100 kPa, x2 = 0.625) was 1.89 ± 0.09 mPa·s. For the same molecule, the viscosity (303.15 K, 100 kPa, x2 = 0.75) was 1.76 ± 0.08 mPa·s, the viscosity (303.15 K, 100 kPa, x2 = 0.875) was 1.64 ± 0.07 mPa·s and the viscosity (313.15 K, 100 kPa, x2 = 0.125) was 2.15 ± 0.1 mPa·s. The viscosity (313.15 K, 100 kPa, x2 = 0.25) was 1.96 ± 0.09 mPa·s, the viscosity (313.15 K, 100 kPa, x2 = 0.375) was 1.79 ± 0.08 mPa·s and the viscosity (313.15 K, 100 kPa, x2 = 0.5) was 1.71 ± 0.08 mPa·s. The viscosity (313.15 K, 100 kPa, x2 = 0.625) was 1.57 ± 0.07 mPa·s, the viscosity (313.15 K, 100 kPa, x2 = 0.75) was 1.47 ± 0.07 mPa·s and the viscosity (313.15 K, 100 kPa, x2 = 0.875) was 1.39 ± 0.06 mPa·s. It also gave a viscosity (323.15 K, 100 kPa, x2 = 0.125) of 1.79 ± 0.08 mPa·s, a viscosity (323.15 K, 100 kPa, x2 = 0.25) of 1.63 ± 0.07 mPa·s and a viscosity (323.15 K, 100 kPa, x2 = 0.375) of 1.51 ± 0.07 mPa·s. It also gave a viscosity (323.15 K, 100 kPa, x2 = 0.5) of 1.43 ± 0.06 mPa·s, a viscosity (323.15 K, 100 kPa, x2 = 0.625) of 1.33 ± 0.06 mPa·s and a viscosity (323.15 K, 100 kPa, x2 = 0.75) of 1.25 ± 0.06 mPa·s. For the same molecule, the viscosity (323.15 K, 100 kPa, x2 = 0.875) was 1.18 ± 0.05 mPa·s.
With CCCC(C)O (stereo unspecified) + COc1ccccc1 the viscosity (303.15 K, 101.33 kPa, x2 = 0.1007) was 2.097 ± 0.028 mPa·s, the viscosity (303.15 K, 101.33 kPa, x2 = 0.2007) was 1.59 ± 0.021 mPa·s and the viscosity (303.15 K, 101.33 kPa, x2 = 0.3001) was 1.279 ± 0.017 mPa·s. It also gave a viscosity (303.15 K, 101.33 kPa, x2 = 0.4004) of 1.095 ± 0.014 mPa·s, a viscosity (303.15 K, 101.33 kPa, x2 = 0.5005) of 0.998 ± 0.013 mPa·s and a viscosity (303.15 K, 101.33 kPa, x2 = 0.5991) of 0.951 ± 0.012 mPa·s. It also gave a viscosity (303.15 K, 101.33 kPa, x2 = 0.6973) of 0.931 ± 0.012 mPa·s, a viscosity (303.15 K, 101.33 kPa, x2 = 0.798) of 0.924 ± 0.011 mPa·s and a viscosity (303.15 K, 101.33 kPa, x2 = 0.897) of 0.919 ± 0.011 mPa·s. It also gave a viscosity (313.15 K, 101.33 kPa, x2 = 0.1007) of 1.557 ± 0.021 mPa·s, a viscosity (313.15 K, 101.33 kPa, x2 = 0.2007) of 1.234 ± 0.016 mPa·s and a viscosity (313.15 K, 101.33 kPa, x2 = 0.3001) of 1.025 ± 0.013 mPa·s. For the same molecule, the viscosity (313.15 K, 101.33 kPa, x2 = 0.4004) was 0.903 ± 0.012 mPa·s, the viscosity (313.15 K, 101.33 kPa, x2 = 0.5005) was 0.845 ± 0.011 mPa·s and the viscosity (313.15 K, 101.33 kPa, x2 = 0.5991) was 0.823 ± 0.01 mPa·s. It also gave a viscosity (313.15 K, 101.33 kPa, x2 = 0.6973) of 0.816 ± 0.01 mPa·s, a viscosity (313.15 K, 101.33 kPa, x2 = 0.798) of 0.811 ± 0.01 mPa·s and a viscosity (313.15 K, 101.33 kPa, x2 = 0.897) of 0.801 ± 0.01 mPa·s. The viscosity (323.15 K, 101.33 kPa, x2 = 0.1007) was 1.202 ± 0.016 mPa·s, the viscosity (323.15 K, 101.33 kPa, x2 = 0.2007) was 1.014 ± 0.013 mPa·s and the viscosity (323.15 K, 101.33 kPa, x2 = 0.3001) was 0.887 ± 0.012 mPa·s. For the same molecule, the viscosity (323.15 K, 101.33 kPa, x2 = 0.4004) was 0.803 ± 0.01 mPa·s, the viscosity (323.15 K, 101.33 kPa, x2 = 0.5005) was 0.753 ± 0.01 mPa·s and the viscosity (323.15 K, 101.33 kPa, x2 = 0.5991) was 0.725 ± 0.009 mPa·s. For the same molecule, the viscosity (323.15 K, 101.33 kPa, x2 = 0.6973) was 0.711 ± 0.009 mPa·s, the viscosity (323.15 K, 101.33 kPa, x2 = 0.798) was 0.704 ± 0.009 mPa·s and the viscosity (323.15 K, 101.33 kPa, x2 = 0.897) was 0.697 ± 0.009 mPa·s.
Work on CC(=O)OCC(C)C + Cc1cccc(C)c1 yielded a viscosity (303.15 K, 101 kPa, x1 = 0.094) of 0.556 ± 0.011 mPa·s, a viscosity (303.15 K, 101 kPa, x1 = 0.1803) of 0.562 ± 0.011 mPa·s and a viscosity (303.15 K, 101 kPa, x1 = 0.2916) of 0.572 ± 0.011 mPa·s. It also gave a viscosity (303.15 K, 101 kPa, x1 = 0.3889) of 0.582 ± 0.011 mPa·s, a viscosity (303.15 K, 101 kPa, x1 = 0.4721) of 0.592 ± 0.011 mPa·s and a viscosity (303.15 K, 101 kPa, x1 = 0.5698) of 0.602 ± 0.011 mPa·s. For the same molecule, the viscosity (303.15 K, 101 kPa, x1 = 0.6807) was 0.616 ± 0.011 mPa·s, the viscosity (303.15 K, 101 kPa, x1 = 0.7789) was 0.629 ± 0.011 mPa·s and the viscosity (303.15 K, 101 kPa, x1 = 0.8716) was 0.641 ± 0.011 mPa·s. For the same molecule, the viscosity (303.15 K, 101 kPa, x1 = 0.9307) was 0.644 ± 0.011 mPa·s, the viscosity (313.15 K, 101 kPa, x1 = 0.094) was 0.505 ± 0.011 mPa·s and the viscosity (313.15 K, 101 kPa, x1 = 0.1803) was 0.508 ± 0.011 mPa·s. The viscosity (313.15 K, 101 kPa, x1 = 0.2916) was 0.515 ± 0.011 mPa·s, the viscosity (313.15 K, 101 kPa, x1 = 0.3889) was 0.521 ± 0.011 mPa·s and the viscosity (313.15 K, 101 kPa, x1 = 0.4721) was 0.527 ± 0.011 mPa·s. It also gave a viscosity (313.15 K, 101 kPa, x1 = 0.5698) of 0.536 ± 0.011 mPa·s, a viscosity (313.15 K, 101 kPa, x1 = 0.6807) of 0.546 ± 0.011 mPa·s and a viscosity (313.15 K, 101 kPa, x1 = 0.7789) of 0.555 ± 0.011 mPa·s. The viscosity (313.15 K, 101 kPa, x1 = 0.8716) was 0.566 ± 0.011 mPa·s and the viscosity (313.15 K, 101 kPa, x1 = 0.9307) was 0.572 ± 0.011 mPa·s.
